Data from patent US20230203043A1, “NOVEL IMIDAZOPYRAZINE DERIVATIVES” (Hoffmann-La Roche Inc., priority 2020, published 2023).
Structures can show the parent of a compound that is named as a salt.

test system: Acinetobacter baumannii ATCC17961; assay: Antimicrobial susceptibility testing: 90% growth inhibitory concentration (IC90) determination in Iso-Sensitest broth, OD600 growth; type: cell-based; conditions: Acinetobacter baumannii, ATCC17961, 16 h, read-out: A. baumannii ATCC 17961 IC90 (uM), strain ATCC 17961, OD600 growth over 16 h
Outline: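 Growth inhibition is calculated during the logarithmic phase from OD600 readings taken every 20 minutes across 16 h at 35±2° C. Bacteria at ~5×10^(5) CFU/ml face twofold dilution series (e.g. 50 to 0.097 μM final).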

Compound | IC90
CCc1cc(Nc2nccn3c(-c4cn(CC(F)F)nc4C(F)(F)F)cnc23)ccc1C(=O)NCC(=O)NCC1(O)CCNCC1 [Example 551, 4-[[3-[1-(2,2-difluoroethyl)-3-(trifluoromethyl)pyrazol-4-yl]imidazo[1,2-a]pyrazin-8-yl]amino]-2-ethyl-N-[2-[(4-hydroxy-4-piperidyl)methylamino]-2-oxo-ethyl]benzamide formate] | 0.357 µM
CCc1cc(Nc2nccn3c(-c4c[nH]nc4C(F)(F)F)cnc23)ccc1C(=O)NCCNC(=O)C1CCNCC1 [Example 553, N-(2-(2-ethyl-4-((3-(3-(trifluoromethyl)-1H-pyrazol-4-yl)imidazo[1,2-a]pyrazin-8-yl)amino)benzamido)ethyl) piperidine-4-carboxamide formate] | 0.682 µM
CCc1cc(Nc2nccn3c(-c4cn(CC(F)F)nc4C(F)(F)F)cnc23)ccc1C(=O)NCCNC(=O)C1CCNCC1 [Example 554, N-(2-(4-((3-(1-(2,2-difluoroethyl)-3-(trifluoromethyl)-1H-pyrazol-4-yl)imidazo[1,2-a]pyrazin-8-yl)amino)-2-ethylbenzamido)ethyl) piperidine-4-carboxamide formate] | 0.198 µM
CCc1cc(Nc2nccn3c(-c4cn(CC(F)F)nc4C(F)(F)F)cnc23)ccc1C(=O)N1CCC2(CNC2)C1 [Example 555, (4-((3-(1-(2,2-difluoroethyl)-3-(trifluoromethyl)-1H-pyrazol-4-yl)imidazo[1,2-a]pyrazin-8-yl)amino)-2-ethylphenyl)(2,6-diazaspiro[3.4]octan-6-yl)methanone formate] | 0.977 µM
CCc1cc(Nc2nccn3c(-c4cn(CC(F)F)nc4C(F)(F)F)cnc23)ccc1C(=O)N1CC(N)C1 [Example 556, (3-aminoazetidin-1-yl)(4-((3-(1-(2,2-difluoroethyl)-3-(trifluoromethyl)-1H-pyrazol-4-yl)imidazo[1,2-a]pyrazin-8-yl)amino)-2-ethylphenyl)methanone formate] | 0.675 µM
CCc1cc(Nc2nccn3c(-c4cn(CC(F)F)nc4C(F)(F)F)cnc23)ccc1C(=O)NCC1CNC1 [Example 557, N-(azetidin-3-ylmethyl)-4-((3-(1-(2,2-difluoroethyl)-3-(trifluoromethyl)-1H-pyrazol-4-yl)imidazo[1,2-a]pyrazin-8-yl)amino)-2-ethylbenzamide formate] | 0.144 µM
CCc1cc(Nc2nccn3c(-c4cn(CC(F)F)nc4C(F)(F)F)cnc23)ccc1C(=O)NCC(CN)CCl (stereo not drawn) [Example 558, N-(3-amino-2-(chloromethyl)propyl)-4-((3-(1-(2,2-difluoroethyl)-3-(trifluoromethyl)-1H-pyrazol-4-yl)imidazo[1,2-a]pyrazin-8-yl)amino)-2-ethylbenzamide formate] | 0.174 µM
CCc1cc(Nc2nccn3c(-c4cn(CC(F)F)nc4C(F)(F)F)cnc23)ccc1C(=O)N1CCC12CNC2 [Example 559, (4-((3-(1-(2,2-difluoroethyl)-3-(trifluoromethyl)-1H-pyrazol-4-yl)imidazo[1,2-a]pyrazin-8-yl)amino)-2-ethylphenyl)(1,6-diazaspiro[3.3]heptan-1-yl)methanone formate] | 0.398 µM
CCc1cc(Nc2nccn3c(-c4cn(CC(F)F)nc4C(F)(F)F)cnc23)ccc1C(=O)N1CC2CC1CN2 (stereo not drawn) [Example 561, (2,5-diazabicyclo [2.2.1]heptan-2-yl)(4-((3-(1(2,2-difluoroethyl)-3-(trifluoromethyl)-1H-pyrazol-4-yl)imidazo[1,2-a]pyrazin-8-yl)amino)-2-ethylphenyl) methanone formate] | 0.909 µM
CCc1cc(Nc2nccn3c(-c4cn(CC(F)F)nc4C(F)(F)F)cnc23)ccc1C(=O)NC1C2CNCC21 (stereo not drawn) [Example 562, N-(3-azabicyclo[3.1.0]hexan-6-yl)-4-((3-(1-(2,2-difluoroethyl)-3-(trifluoromethyl)-1H-pyrazol-4-yl)imidazo[1,2-a]pyrazin-8-yl)amino)-2-ethylbenzamide formate] | 0.305 µM
CCc1cc(Nc2nccn3c(-c4cn(CC(F)F)nc4C(F)(F)F)cnc23)ccc1C(=O)NC1CCCNC1 (stereo not drawn) [Example 563, 4-((3-(1-(2,2-difluoroethyl)-3-(trifluoromethyl)-1H-pyrazol-4-yl)imidazo[1,2-a]pyrazin-8-yl)amino)-2-ethyl-N-(piperidin-3-yl)benzamide formate] | 0.575 µM
CCc1cc(Nc2nccn3c(-c4cn(CC(F)F)nc4C(F)(F)F)cnc23)ccc1C(=O)N1CC2(CCN2)C1 [Example 564, (4-((3-(1-(2,2-difluoroethyl)-3-(trifluoromethyl)-1H-pyrazol-4-yl)imidazo[1,2-a]pyrazin-8-yl)amino)-2-ethylphenyl)(1,6-diazaspiro[3.3]heptan-6-yl)methanone formate] | 0.58 µM
CCc1cc(Nc2nccn3c(-c4cn(CC(F)F)nc4C(F)(F)F)cnc23)ccc1C(=O)NC1CNC1 [Example 565, N-(azetidin-3-yl)-4-((3-(1-(2,2-difluoroethyl)-3-(trifluoromethyl)-1H-pyrazol-4-yl)imidazo[1,2-a]pyrazin-8-yl)amino)-2-ethylbenzamide formate] | 0.188 µM
CCc1cc(Nc2nccn3c(-c4cn(CC#N)nc4C(F)(F)F)cnc23)ccc1C(=O)NCCNC(=O)CCN [Example 566, N-(2-(3-aminopropanamido)ethyl)-4-((3-(1-(cyanomethyl)-3-(trifluoromethyl)-1H-pyrazol-4-yl)imidazo[1,2-a]pyrazin-8-yl)amino)-2-ethylbenzamide formate] | 0.477 µM
CCc1cc(Nc2nccn3c(-c4c[nH]nc4C(F)(F)F)cnc23)ccc1C(=O)NCCNC(=O)NCCCN [Example 569, N-(2-(3-(3-aminopropyl)ureido)ethyl)-2-ethyl-4-((3-(3-(trifluoromethyl)-1H-pyrazol-4-yl)imidazo[1,2-a]pyrazin-8-yl)amino)benzamide formate] | 0.364 µM
O=C(CC1CCNCC1)N1CCN(C(=O)c2ccc(Nc3nccn4c(-c5c[nH]nc5C(F)(F)F)cnc34)cc2Cl)CC1 [Example 570, 1-(4-(2-chloro-4-((3-(3-(trifluoromethyl)-1H-pyrazol-4-yl)imidazo[1,2-a]pyrazin-8-yl)amino)benzoyl)piperazin-1-yl)-2-(piperidin-4-yl) ethan-1-one formate] | 0.256 µM
NCCN1CCN(C(=O)c2ccc(Nc3nccn4c(-c5c[nH]nc5C(F)(F)F)cnc34)cc2Cl)CC1 [Example 571, (4-(2-aminoethyl)piperazin-1-yl)(2-chloro-4-((3-(3-(trifluoromethyl)-1H-pyrazol-4-yl)imidazo[1,2-a]pyrazin-8-yl)amino)phenyl) methanone formate] | 0.192 µM
N#CCn1cc(-c2cnc3c(Nc4ccc(C(=O)N5CCN(C(=O)CC6CCNCC6)CC5)c(Cl)c4)nccn23)c(C(F)(F)F)n1 [Example 572, 2-(4-(8-((3-chloro-4-(4-(2-(piperidin-4-yl)acetyl)piperazine-1-carbonyl)phenyl)amino)imidazo[1,2-a]pyrazin-3-yl)-3-(trifluoromethyl)-1H-pyrazol-1-yl)acetonitrile formate] | 0.291 µM
N#CCn1cc(-c2cnc3c(Nc4ccc(C(=O)N5CCN(C(=O)[C@@H]6CC[C@@H](N)C6)CC5)c(Cl)c4)nccn23)c(C(F)(F)F)n1 [Example 573, 2-(4-(8-((4-(4-((1R,3R)-3-aminocyclopentane-1-carbonyl)piperazine-1-carbonyl)-3-chlorophenyl)amino)imidazo[1,2-a]pyrazin-3-yl)-3-(trifluoromethyl)-1H-pyrazol-1-yl)acetonitrile formate] | 0.169 µM
N[C@@H]1CC[C@@H](C(=O)N2CCN(C(=O)c3ccc(Nc4nccn5c(-c6cn(CC(F)F)nc6C(F)(F)F)cnc45)cc3Cl)CC2)C1 [Example 574, (4-((1R,3R)-3-aminocyclopentane-1-carbonyl)piperazin-1-yl)(2-chloro-4-((3-(1-(2,2-difluoroethyl)-3-(trifluoromethyl)-1H-pyrazol-4-yl)imidazo[1,2-a]pyrazin-8-yl)amino)phenyl)methanone formate] | 0.242 µM

same assay, conditions: Acinetobacter baumannii, ATCC17961, 16 h, strain ATCC 17961, OD600 growth over 16 h, read-out: A. baumannii ATCC 17961 IC90

IC90 | Compound
0.489 µM | CCc1cc(Nc2nccn3c(-c4cn(CC(F)F)nc4C(F)F)cnc23)ccc1C(=O)N[C@H]1C[C@@H](NC(=O)[C@@H]2C[C@@H](O)CN2)C1 [Example 552, (2S,4R)-N-((1s,3R)-3-(4-((3-(1-(2,2-difluoroethyl)-3-(difluoromethyl)-1H-pyrazol-4-yl)imidazo[1,2-a]pyrazin-8-yl)amino)-2-ethylbenzamido)cyclobutyl)-4-hydroxypyrrolidine-2-carboxamide]
0.836 µM | CCc1cc(Nc2nccn3c(-c4cn(CC(F)F)nc4C(F)(F)F)cnc23)ccc1C(=O)N1CCC1(CN)CCl (stereo not drawn) [Example 560, (2-(aminomethyl)-2-(chloromethyl)azetidin-1-yl)(4-((3-(1-(2,2-difluoroethyl)-3-(trifluoromethyl)-1H-pyrazol-4-yl)imidazo[1,2-a]pyrazin-8-yl)amino)-2-ethylphenyl) methanone formate]
0.476 µM | CCc1cc(Nc2nccn3c(-c4c[nH]nc4C(F)(F)F)cnc23)ccc1C(=O)NCCNC(=O)[C@H]1C[C@H](N)C1 [Example 567, N-(2-((1r,3r)-3-aminocyclobutane-1-carboxamido)ethyl)-2-ethyl-4-((3-(3-(trifluoromethyl)-1H-pyrazol-4-yl)imidazo[1,2-a]pyrazin-8-yl)amino) benzamide formate]
0.46 µM | CCc1cc(Nc2nccn3c(-c4c[nH]nc4C(F)(F)F)cnc23)ccc1C(=O)NCCNC(=O)N1CCC(N)CC1 [Example 568, 4-amino-N-(2-(2-ethyl-4-((3-(3-(trifluoromethyl)-1H-pyrazol-4-yl)imidazo[1,2-a]pyrazin-8-yl)amino)benzamido)ethyl) piperidine-1-carboxamide formate]
